In patent US6432993B1, “Substituted fused heterocyclic compound” (Sankyo Company, Limited, priority 1997, dated 2002):
Values after ≈ are worked out from the molar mass of the structure shown. Where a name gives a salt, the structure may show the parent alone.

What was measured:
[1] = tested on: lipid peroxide production, rat hepatic microsome; experiment: Anti-lipid-peroxide action: inhibition of lipid peroxide production in rat hepatic microsome; assay type: biochemical; conditions: Wister rat hepatic microsome, ferrous sulfate/cysteine, 37° C. 30 minutes, thiobarbituric acid absorbance 535 nm
Experimental: Anti-lipid-peroxide Action
The inhibitory effect of the invention compound against the production of lipid peroxide was conducted using rat hepatic microsome.
To 400 μl of a 1:2 mixture of a buffer [a 0.1M aqueous tris(hydroxymethyl)aminomethane solution adjusted to pH 7.4 by hydrochloric acid] and a 0.15M aqueous potassium chloride solution were added 5 μl of a solution of a predetermined concentration of the test compound in dimethyl sulfoxide, and 100 μl of hepatic microsome prepared from Wister rat (10 week old), followed by stirring at 37° C. for 5 minutes. To initiate the reaction of said mixture, 10 μl of a 1:1 mixed solution of a 0.5 mM aqueous solution of ferrous sulfate 7 hydrate and a 50 mM aqueous cysteine solution was added and the resulting mixture was stirred at 37° C. for 30 minutes. 1 ml of a 10% aqueous solution of trichloroacetic acid was added to the reaction mixture to terminate the reaction. The reaction mixture was centrifuged at 3000 rpm at 5° C. for 10 minutes and the supernatant was separated. To 1.0 ml of the supernatant, 1.0 ml of 50% aqueous acetic acid containing 0.67% of thiobarbituric acid was added and the mixture was boiled at 100° C. for 15 minutes. After the resulting mixture was allowed to stand at room temperature for 15 minutes, the absorbance at the wavelength of 535 nm was measured. From the absorbance of the control measured without the test compound and that of the test compounds of a predetermined concentration, an inhibition rate (%) was determined and the 50% inhibition concentration of the test compound against lipid peroxide was determined.

[2] = target: T1, 5-lipoxygenase (Cavia porcellus, UniProt A0A286X958); experiment: 5-Lipoxygenase inhibitory action (5-HETE formation, guinea pig polymorphonuclear leukocyte enzyme); assay type: biochemical; conditions: 25° C. 5 minutes, 5-HETE by HPLC, read-out: IC50 (50% inhibition concentration against 5-lipoxygenase) (converted)
T1 sequence (A0A286X958 1-674): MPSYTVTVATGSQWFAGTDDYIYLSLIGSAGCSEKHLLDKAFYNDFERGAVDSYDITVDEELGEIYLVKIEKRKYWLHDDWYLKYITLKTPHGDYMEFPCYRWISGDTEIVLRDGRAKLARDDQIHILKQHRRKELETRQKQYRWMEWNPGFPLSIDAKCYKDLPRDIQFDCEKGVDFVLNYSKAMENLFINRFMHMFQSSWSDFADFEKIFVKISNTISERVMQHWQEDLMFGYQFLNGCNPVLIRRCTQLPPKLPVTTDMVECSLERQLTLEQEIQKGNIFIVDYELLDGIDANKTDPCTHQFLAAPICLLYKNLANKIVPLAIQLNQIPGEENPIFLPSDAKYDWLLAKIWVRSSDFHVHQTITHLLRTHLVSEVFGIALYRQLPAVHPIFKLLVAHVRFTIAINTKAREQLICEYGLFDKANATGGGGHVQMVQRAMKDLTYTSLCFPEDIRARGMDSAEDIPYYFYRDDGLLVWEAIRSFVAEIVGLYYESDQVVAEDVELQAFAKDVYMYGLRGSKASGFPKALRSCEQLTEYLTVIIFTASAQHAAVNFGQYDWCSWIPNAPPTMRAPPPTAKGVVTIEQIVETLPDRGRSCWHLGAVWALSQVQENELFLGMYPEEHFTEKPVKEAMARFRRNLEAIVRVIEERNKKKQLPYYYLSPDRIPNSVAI
Experimental: 5-Lipoxygenase Inhibitory Action
Into 5 μl of a solution of the test compound in dimethylsulfoxide, 750 μl of a 1/15M phosphate buffer (pH 7.4) which was prepared by dissolving a wrapper of phosphate buffer powder (Yatron) in 10 ml of water, 40 μl of a 30 mM aqueous calcium chloride solution, 50 μl of a 20 mM aqueous GSH (glutathione, reduced form) solution, 50 μl of a 40 mM aqueous ATP (adenosine-5-triphosphate) solution and 100 μl of guinea pig polymorphonuclear leukocyte enzyme were added, followed by stirring at 25° C. for 5 minutes. To initiate the reaction, 5 μl of […] (10 mg/ml ethanol) were added to said mixture and the mixture was stirred at 25° C. for 5 minutes. 50 μl of 2N hydrochloric acid were added to the reaction mixture to terminate the reaction. 2.0 ml of ethyl acetate containing an internal standard substance (internal standard substance: 2 μg/ml of isoamyl paraben) were then added to the reaction mixture. The resulting mixture was extracted for 1 minute by a mixer, followed by centrifugal separation at 3000 rpm for 5 minutes. The ethyl acetate layer was separated, evaporated to dryness under reduced pressure and then dissolved in 200 μl of acetonitrile. By high-performance liquid chromatography, the amount of 5-HETE formed was determined. From the determination of 5-HETE of the control without the test compounds and that of the test compounds, an inhibition rate (%) was found and the 50% inhibition concentration of the test compounds against 5-lipoxygenase was determined.

[3] = tested on: KK mice which developed diabetes; experiment: Hypoglycemic action in diabetic KK mice; assay type: in vivo; conditions: powdery food containing 0.01% test compound for three days, plasma glucose vs control; for inhibition in vivo at 0.01 % in diet: Mus musculus, po, 72 h, read-out: Blood sugar lowering rate (%)
Experimental: The blood sample was collected from the caudal vein of each of KK mice (4-5 month old) which developed diabetes and its blood sugar level was measured. The mice were then classified into groups (4 mice per group) so that they would be equal in the average of the blood sugar levels of the mice. For three days, powdery food (F-1, produced by Funabashi Farm) adjusted to contain the test compound in an amount of 0.01% was administered to mice. The mouse group to which the test compound was administered refers to “the medicine administered group”, while that to which the powdery food free of the test compound was administered refers to “the control”. After three days, the blood sample was collected from the caudal vein of each of the mice and the glucose concentration in the plasma obtained by centrifugal separation was measured by a glucose analyzer (“Glucoroder”, A&T Inc.). The blood-sugar lowering rate was calculated from the following equation:
Blood sugar lowering rate (%)=(average blood sugar level of the control−average blood sugar level of the medicine administered group)×100/the blood sugar level of the control

| IC50 (50% inhibition concentration against lipid peroxide) [1] [µg/mL] | SMILES | inhibition in vivo at 0.01 % in diet [3] [%] | other results |
| --- | --- | --- | --- |
| – | Cc1cc(O)ccc1Oc1ccc2nc(COc3ccc(CC4SC(=O)NC4=O)cc3)n(C)c2c1.Cl (stereo not shown) | – | melting point: 165 to 168 °C |
| 0.97 (≈ 1.87 µM) | Cc1cc(Oc2ccc3nc(COc4ccc(CC5SC(=O)NC5=O)cc4)n(C)c3n2)c(C)c(C)c1O (stereo not shown) [Example 1-2a, 5-{4-[5-(4-Hydroxy-2,3,5-trimethylphenoxy)-3-methyl-3H-imidazo[4,5-b]pyridin-2-ylmethoxy]benzyl}thiazolidine-2,4-dione] | – | IC50 [2]: 1140 nM |
| – | Cc1cc(Oc2ccc3nc(COc4ccc(CC5SC(=O)NC5=O)cc4)n(C)c3n2)c(C)c(C)c1O (stereo not shown) [Example 1-2b, 5-{4-[5-(4-Hydroxy-2,3,5-trimethylphenoxy)-3-methyl-3H-imidazo[4,5-b]pyridin-2-ylmethoxy]benzyl}thiazolidine-2,4-dione hydrochloride] | 48.1 | – |
| 0.54 (≈ 1.04 µM) | Cc1cc(Oc2ccc3nc(COc4ccc(CC5SC(=O)NC5=O)cc4)n(C)c3c2)c(C)c(C)c1O (stereo not shown) [Example 2-2a, 5-{4-[6-(4-Hydroxy-2,3,5-trimethylphenoxy)-1-methyl-1H-benzimidazol-2-ylmethoxy]benzyl}thiazolidine-2,4-dione] | – | IC50 [2]: 193 nM |
| – | Cc1cc(Oc2ccc3nc(COc4ccc(CC5SC(=O)NC5=O)cc4)n(C)c3c2)c(C)c(C)c1O (stereo not shown) [Example 2-2b, 5-{4-[6-(4-Hydroxy-2,3,5-trimethylphenoxy)-1-methyl-1H-benzimidazol-2-ylmethoxy]benzyl}thiazolidine-2,4-dione hydrochloride] | 49.2 | – |
| – | Cn1c(COc2ccc(CC3SC(=O)NC3=O)cc2)nc2ccc(Oc3ccc(O)cc3)cc21 (stereo not shown) [Example 3-2, 5-{4-[6-(4-Hydroxyphenoxy)-1-methyl-1H-benzimidazol-2-ylmethoxy]benzyl}thiazolidine-2,4-dione] | 60.1 | – |
| 0.83 (≈ 1.65 µM) | Cc1cc(Oc2ccc3nc(COc4ccc(CC5SC(=O)NC5=O)cc4)n(C)c3c2)cc(C)c1O (stereo not shown) [Example 4-2a, 5-{4-[6-(4-Hydroxy-3,5-dimethylphenoxy)-1-methyl-1H-benzimidazol-2-ylmethoxy]benzyl}thiazolidine-2,4-dione] | 67.5 | IC50 [2]: 397 nM |
| 1.3 | Cc1cc(Oc2ccc3nc(COc4ccc(CC5SC(=O)NC5=O)cc4)n(C)c3c2)c(Cl)c(C)c1O.Cl (stereo not shown) [Example 5b, 5-{4-[6-(2-Chloro-4-hydroxy-3,5-dimethylphenoxy)-1-methyl-1H-benzimidazol-2-ylmethoxy]benzyl}thiazolidine-2,4-dione hydrochloride] | – | IC50 [2]: 923 nM |
| – | Cn1c(COc2ccc(CC3SC(=O)NC3=O)cc2)nc2ccc(Oc3ccccn3)cc21 (stereo not shown) [Example 6-2, 5-{4-[6-(Pyridin-2-yloxy)-1-methyl-1H-benzimidazol-2-ylmethoxy]benzyl}thiazolidine-2,4-dione] | 62.6 | – |
| 0.65 | Cl.Cn1c(COc2ccc(CC3SC(=O)NC3=O)cc2)nc2ccc(Sc3cc(C(C)(C)C)c(O)c(C(C)(C)C)c3)cc21.Cn1c(COc2ccc(CC3SC(=O)NC3=O)cc2)nc2ccc(Sc3cc(C(C)(C)C)c(O)c(C(C)(C)C)c3)cc21 (stereo not shown) [Example 7-2a, 5-{4-[6-(3,5-Di-t-butyl-4-hydroxyphenylthio)-1-methyl-1H-benzimidazol-2-ylmethoxy]benzyl}thiazolidine-2,4-dione 1/2 hydrochloride] | – | Blood sugar lowering rate (%) [3]: 71.7% |
| 3.2 | Cc1cc(Oc2ccc3nc(COc4ccc(CC5SC(=O)NC5=O)cc4)n(C)c3c2)cc(C)c1N.Cl.Cl (stereo not shown) [Example 8-2b, 5-{4-[6-(4-Amino-3,5-dimethylphenoxy)-1-methyl-1H-benzimidazol-2-ylmethoxy]benzyl}thiazolidine-2,4-dione dihydrochloride] | – | – |
| – | Cn1c(COc2ccc(CC3SC(=O)NC3=O)cc2)nc2ccc(Sc3ccccn3)cc21 (stereo not shown) [Example 13-2b, 5-{4-[1-Methyl-6-(pyridin-2-ylthio)-1H-benzimidazole-2-ylmethoxy]benzyl}thiazolidine-2,4-dione dihydrochloride] | 68.1 | – |
| – | Cn1c(COc2ccc(CC3SC(=O)NC3=O)cc2)nc2ccc(Oc3ccc(-n4ccnc4)cc3)cc21 (stereo not shown) [Example 19-2, 5-{4-(6-[4-(Imidazole-1-yl)phenoxy]-1-methyl-1H-benzimidazole-2-ylmethoxy)benzyl}thiazolidine-2,4-dione dihydrochloride] | 66.8 | – |
| – | Cc1ccc(Sc2ccc3nc(COc4ccc(CC5SC(=O)NC5=O)cc4)n(C)c3c2)cc1 (stereo not shown) [Example 34-2b, 5-{4-[1-Methyl-6-(4-methylthiophenoxy)-1H-benzimidazole-2-ylmethoxy]benzyl}thiazolidine-2,4-dione hydrochloride] | 71.2 | – |
| – | Cn1c(COc2ccc(CC3SC(=O)NC3=O)cc2)nc2ccc(Oc3ccc(C#N)cc3)cc21 (stereo not shown) [Example 40, 5-{4-[6-(4-Cyanophenoxy)-1-methyl-1H-benzimidazole-2-ylmethoxy]benzyl}thiazolidine-2,4-dione hydrochloride] | 66.4 | – |
| – | Cn1c(COc2ccc(CC3SC(=O)NC3=O)cc2)nc2ccc(Oc3ccc(NC(=O)c4cccnc4)cc3)cc21 (stereo not shown) [Example 51, 5-{4-[6-(4-Nicotinoylaminophenoxy)-1-methyl-1H-benzimidazole-2-ylmethoxy]benzyl}thiazolidine-2,4-dione] | 63.6 | – |
